Data reported in patent publication US20080103209A1, “Compounds And Methods For Treating Non-Inflammatory Pain Using Ppar Alpha Agonists” (The Regents of The University of California, priority 2004, published 2008).

Columns and labels:
[1] = target: T1, PPARγ (Homo sapiens, UniProt P37231); test: PPARγ transactivation assay; type: cell-based; conditions: concentrations as high as 20 μM
T1 construct: expressed in transfected cells
T1 sequence (P37231 1-505): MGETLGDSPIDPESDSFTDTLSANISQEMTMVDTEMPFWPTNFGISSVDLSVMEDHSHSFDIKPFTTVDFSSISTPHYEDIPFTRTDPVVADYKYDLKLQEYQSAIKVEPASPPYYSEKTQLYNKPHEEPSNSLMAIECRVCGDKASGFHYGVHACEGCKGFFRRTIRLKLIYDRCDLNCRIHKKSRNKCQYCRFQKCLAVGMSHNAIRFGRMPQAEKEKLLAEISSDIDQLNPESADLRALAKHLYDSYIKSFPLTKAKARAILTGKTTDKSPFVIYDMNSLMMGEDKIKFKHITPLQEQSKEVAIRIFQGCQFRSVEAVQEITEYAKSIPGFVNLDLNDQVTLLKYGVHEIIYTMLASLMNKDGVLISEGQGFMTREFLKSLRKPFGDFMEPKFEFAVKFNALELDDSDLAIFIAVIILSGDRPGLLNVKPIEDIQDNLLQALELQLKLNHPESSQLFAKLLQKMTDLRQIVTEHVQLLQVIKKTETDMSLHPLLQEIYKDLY
Experimental: (§1) Transactivation assays were performed as previously described [Fu et al., Nature 425:90-93 (2003)].

[2] = test system: mice; test: Carrageenan-evoked paw edema (acute); type: in vivo, mouse; conditions: wild-type C57Bl6J; PEA 10 mg-kg^−1 i.p., WY-14643 20 mg-kg^−1 i.p.
From the text: In addition to rapid-onset analgesia, PEA also exerts prolonged anti-inflammatory effects [Benvenuti, et al., Boll Soc It Biol Sper 44, 809-813 (1968); Lambert, et al., Curr Med. Chem. 9, 663-74 (2002)], which are associated with the down-regulation of pro-inflammatory proteins such as nitric oxide synthase (NOS) [Costa, et al., Br J Pharmacol 137, 413-20. (2002)]. Two models of acute inflammation were used to examine whether such effects are mediated through PPARα. First, paw edema was induced in C57B16J wild-type and PPARα^−/− mice by local injection of the irritant, carrageenan [Cirino, et al., Eur J Pharmacol 166, 505-10 (1989)]. […] Next, ear edema was produced in CD1 mice by topical administration of the phorbol ester, 12-O-tetradecanoylphorbol-13-acetate (TPA) [Sheu, et al., J Invest Dermatol., 94-101. (2002)]. […] In a parallel set of experiments, the effects of PEA (20 μg) on TPA-induced edema were tested in C57B16J wild-type and PPARα^−/− mice. […] Together, these findings indicate that PEA reduces acute nociception and inflammation through activation of PPARα.
An inflammatory response was initiated by injecting 2% (w v^−1, 20 μl) λ-carrageenan in sterile saline into mice hind paws using a 27-gauge needle. Drugs were administered 30 minutes before carrageenan (i.p.). Paw edema was measured using a plethysmometer (Ugo Basile, Italy).

[3] = target: T2, PPARβ/δ (Homo sapiens, UniProt Q03181); test: PPARβ/δ transactivation assay; type: cell-based; conditions: concentrations as high as 20 μM
T2 construct: expressed in transfected cells
T2 sequence (Q03181 1-441): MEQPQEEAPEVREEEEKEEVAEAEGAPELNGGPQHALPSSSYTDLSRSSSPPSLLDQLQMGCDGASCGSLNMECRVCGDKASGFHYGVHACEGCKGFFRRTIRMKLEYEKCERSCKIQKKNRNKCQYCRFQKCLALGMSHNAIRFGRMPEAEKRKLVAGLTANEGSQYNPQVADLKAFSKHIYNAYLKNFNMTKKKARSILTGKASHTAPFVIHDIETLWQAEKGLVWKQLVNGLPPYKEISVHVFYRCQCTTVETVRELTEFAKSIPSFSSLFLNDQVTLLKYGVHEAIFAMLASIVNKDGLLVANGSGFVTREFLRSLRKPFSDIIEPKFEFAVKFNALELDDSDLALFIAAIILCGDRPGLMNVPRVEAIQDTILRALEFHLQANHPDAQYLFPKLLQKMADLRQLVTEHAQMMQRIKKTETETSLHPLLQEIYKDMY
Experimental: as §1

PPARγ activation [1]: did not activate
PPARβ/δ activation [3]: did not activate
Structure (SMILES): CCCCCCCCCCCCCCCC(=O)NCCO [PEA, palmitoylethanolamide]
carrageenan paw edema in wild-type mice [2]: decreased edema
